The target in test [1] is T1, Peroxisome proliferator-activated receptor alpha (Homo sapiens) (UniProt Q07869).
T1 sequence (whole entry): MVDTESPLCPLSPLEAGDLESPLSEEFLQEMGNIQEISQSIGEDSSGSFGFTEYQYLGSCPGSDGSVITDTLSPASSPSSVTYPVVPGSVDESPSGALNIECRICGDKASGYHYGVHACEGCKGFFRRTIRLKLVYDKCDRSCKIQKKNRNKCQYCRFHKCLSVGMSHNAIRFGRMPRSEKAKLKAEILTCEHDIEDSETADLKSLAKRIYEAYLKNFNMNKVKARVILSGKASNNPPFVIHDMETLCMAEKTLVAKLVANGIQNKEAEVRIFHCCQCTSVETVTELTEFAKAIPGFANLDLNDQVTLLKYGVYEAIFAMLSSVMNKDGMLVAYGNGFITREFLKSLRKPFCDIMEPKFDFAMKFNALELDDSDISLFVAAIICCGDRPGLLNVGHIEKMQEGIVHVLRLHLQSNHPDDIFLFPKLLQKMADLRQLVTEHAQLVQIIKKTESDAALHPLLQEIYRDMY
Briefly: Transactivation of PPARalpha expressed in human HepG2 cells assessed as Sult2a1 expression at 10 uM by luciferase reporter gene assay relative to vehicle-treated control. The class given is cell-based.

Test [2] has as its target T2, Peroxisome proliferator-activated receptor gamma (Homo sapiens) (UniProt P37231).
T2 sequence (whole entry): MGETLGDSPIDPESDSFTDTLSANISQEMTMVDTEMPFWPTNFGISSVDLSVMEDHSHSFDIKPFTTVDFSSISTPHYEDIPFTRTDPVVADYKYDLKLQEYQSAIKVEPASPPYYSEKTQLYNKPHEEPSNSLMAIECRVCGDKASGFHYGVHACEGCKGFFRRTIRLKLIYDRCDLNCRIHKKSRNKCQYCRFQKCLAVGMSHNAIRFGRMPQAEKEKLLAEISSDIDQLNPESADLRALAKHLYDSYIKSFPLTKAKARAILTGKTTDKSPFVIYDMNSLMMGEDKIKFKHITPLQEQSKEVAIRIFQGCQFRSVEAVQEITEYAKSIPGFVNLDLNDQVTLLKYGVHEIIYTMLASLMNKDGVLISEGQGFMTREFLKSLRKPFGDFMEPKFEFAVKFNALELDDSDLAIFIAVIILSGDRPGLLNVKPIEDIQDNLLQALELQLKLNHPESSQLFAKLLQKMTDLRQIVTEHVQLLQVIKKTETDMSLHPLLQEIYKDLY
The test can be described thus: Agonist activity at human PPARgamma expressed in human HEK293 cells assessed as ABCA1 promoter transactivation by luciferase reporter gene assay relative to vehicle-treated control. The class given is functional, cell-based.

In test [3] the target is T2, Peroxisome proliferator-activated receptor gamma (Homo sapiens). Briefly: Agonist activity at human PPARgamma expressed in human HEK293 cells assessed as ABCA1 promoter transactivation at 10 uM by luciferase reporter gene assay relative to vehicle-treated control. The class given is functional, cell-based. For orientation: A reporter such as luciferase makes a cellular process visible.

In test [4] the target is T3, Peroxisome proliferator-activated receptor gamma (Homo sapiens, UniProt P37231).
T3 sequence (P37231 whole entry): T2 sequence (whole entry)
The test can be described thus: Inhibition of fluormone binding to human PPARgamma LBD after 2 hrs by competitive fluorescence polarization assay.

The target of test [5] is T2, Peroxisome proliferator-activated receptor gamma (Homo sapiens). The test can be described thus: Agonist activity at human PPARgamma expressed in human HEK293 cells assessed as SHP promoter transactivation at 10 uM by luciferase reporter gene assay relative to vehicle-treated control. The class given is functional, cell-based.
For test [6] the target is unchanged. Briefly: Agonist activity at human PPARgamma expressed in human HEK293 cells assessed as SHP promoter transactivation by luciferase reporter gene assay relative to vehicle-treated control. It is filed as functional, cell-based.
For test [7] the target is unchanged. Briefly: Agonist activity at human PPARgamma expressed in human HEK293 cells at 10 uM by luciferase reporter gene assay relative to vehicle-treated control. It is filed as functional, cell-based.
The target of test [8] is T1, Peroxisome proliferator-activated receptor alpha (Homo sapiens). The test can be described thus: Transactivation of PPARalpha expressed in human HepG2 cells assessed as Sult2a1 expression at 100 nM by luciferase reporter gene assay relative to vehicle-treated control. It is filed as cell-based.
Test [9] concerns the target T2, Peroxisome proliferator-activated receptor gamma (Homo sapiens). Briefly: Agonist activity at human PPARgamma expressed in human HEK293 cells assessed as SHP promoter transactivation at 1 uM by luciferase reporter gene assay relative to vehicle-treated control. The class given is functional, cell-based.
For test [10] the target is unchanged. Briefly: Agonist activity at human PPARgamma expressed in human HEK293 cells assessed as ABCA1 promoter transactivation at 1 uM by luciferase reporter gene assay relative to vehicle-treated control. The class given is functional, cell-based.
Test [11] has the same target. The conditions noted are these: HEK293.
Description: Agonist activity at human PPARgamma expressed in human HEK293 cells assessed as ABCA1 promoter transactivation at 100 nM by luciferase reporter gene assay relative to vehicle-treated control

Consider three molecules from ChEMBL document CHEMBL2163343, “Sesquiterpene lactones from Tithonia diversifolia act as peroxisome proliferator-activated receptor agonists” (Bioorg Med Chem Lett, 2012).

SMILES strings stand for the structures.

On to `CCOC(=O)C(C)(C)Oc1ccc(Cl)cc1`, for which the RLU in test [1] stood at 2.44.

Turning to `C=C1C(=O)O[C@@H]2C[C@H](C)[C@@]3(O)C[C@H](O)[C@@](C)(C[C@@H](OC(=O)C(C)C)[C@@H]12)O3` [TAGITININ A], the Activity entry in test [2] and in test [6] was “Dose-dependent effect” throughout. Also, the RLU came out at 2.9 in test [3]; 3.5 in test [5]; 1.5 in [7]; 1.4 in test [8]; 2.8 in test [9]; 2.47 in [1]. In addition, in test [10], the RLU stood at 2.1. Besides, the IC50 – broadly, the concentration at which inhibition is half-maximal – in test [4] turned out to be 55 µM.

For the molecule `C=C1C(=O)O[C@@H]2C[C@H](C)[C@@]3(O)CC[C@@](C)(C[C@@H](OC(=O)C(C)C)[C@@H]12)O3` [TIROTUNDIN], the Activity result in test [2] and in test [6] was “Dose-dependent effect” throughout. Also, the RLU amounted to 3.1 in test [3]; 3.4 in test [5]; 2 in [7]; 1.4 in test [8]; 2.33 in test [1]; 1.6 in test [11]. Besides, the RLU in [10] was found to be 2.1. Moreover, the IC50 in test [4] stood at 27 µM.
